Reference: the supplement of paper PMC10307832

Key:
Assay in all cases: relative viability (nuclei count vs DMSO), 5 days (fraction); higher = more cells survive
Metformin + Olaparib = compound: CN(C)C(=N)NC(=N)N [Metformin] + O=C(c1cc(Cc2n[nH]c(=O)c3ccccc23)ccc1F)N1CCN(C(=O)C2CC2)CC1 [Olaparib] (partner 8 µM)
Summary of the method: (§1)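 Lung cancer cell lines, seeded in 1536-well plates, were treated the following day by pin tool with a single drug or with five library-drug doses (not always all listed) in √10 steps on top of a fixed anchor-drug dose. Cells were fixed and nuclei stained in one step after 5 days, and nuclei were counted. Relative viability is the nuclei count for treated wells divided by that for vehicle wells, reported as medians of duplicate plates.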

Metformin + Pictilisib = compound: CN(C)C(=N)NC(=N)N [Metformin] + CS(=O)(=O)N1CCN(Cc2cc3nc(-c4cccc5[nH]ncc45)nc(N4CCOCC4)c3s2)CC1 [Pictilisib] (partner 1 µM)
Summary of the method: as §1

Apatinib + Dasatinib = compound: N#CC1(c2ccc(NC(=O)c3cccnc3NCc3ccncc3)cc2)CCCC1 [Apatinib] + Cc1nc(Nc2ncc(C(=O)Nc3c(C)cccc3Cl)s2)cc(N2CCN(CCO)CC2)n1 [Dasatinib] (partner 0.075 µM)
Summary of the method: as §1

Metformin + Bortezomib = compound: CN(C)C(=N)NC(=N)N [Metformin] + CC(C)C[C@H](NC(=O)[C@H](Cc1ccccc1)NC(=O)c1cnccn1)B(O)O [Bortezomib] (partner 0.002 µM)
Summary of the method: as §1

Cell Line | relative viability (Metformin + Olaparib; first compound 10 µM) | relative viability (Metformin + Olaparib; first compound 31.62 µM) | relative viability (Metformin + Olaparib; first compound 100 µM) | relative viability (Metformin + Olaparib; first compound 316.23 µM) | relative viability (Metformin + Olaparib; first compound 1000 µM) | relative viability (Metformin + Pictilisib; first compound 10 µM) | relative viability (Metformin + Pictilisib; first compound 31.62 µM) | relative viability (Metformin + Pictilisib; first compound 100 µM) | relative viability (Metformin + Pictilisib; first compound 316.23 µM) | relative viability (Metformin + Pictilisib; first compound 1000 µM) | relative viability (Apatinib + Dasatinib; first compound 0.08 µM) | relative viability (Apatinib + Dasatinib; first compound 0.253 µM) | relative viability (Apatinib + Dasatinib; first compound 0.8 µM) | relative viability (Apatinib + Dasatinib; first compound 2.53 µM) | relative viability (Apatinib + Dasatinib; first compound 8 µM) | relative viability (Metformin + Bortezomib; first compound 10 µM) | relative viability (Metformin + Bortezomib; first compound 31.62 µM) | relative viability (Metformin + Bortezomib; first compound 100 µM) | relative viability (Metformin + Bortezomib; first compound 316.23 µM) | relative viability (Metformin + Bortezomib; first compound 1000 µM)
LOU-NH91 | 0.859 | 0.894 | 0.865 | 0.883 | 0.845 | 0.555 | 0.469 | 0.53 | 0.496 | 0.549 | 0.505 | 0.552 | 0.498 | 0.528 | 0.471 | 0.515 | 0.504 | 0.511 | 0.56 | 0.474
LU99A | 0.203 | 0.251 | 0.202 | 0.232 | 0.241 | 0.248 | 0.295 | 0.247 | 0.27 | 0.241 | 0.526 | 0.565 | 0.523 | 0.486 | 0.416 | 0.96 | 1.06 | 0.988 | 0.903 | 1.04
LXF-289 | 0.929 | 0.922 | 0.829 | 0.917 | 0.93 | 0.73 | 0.685 | 0.746 | 0.661 | 0.76 | 0.234 | 0.253 | 0.232 | 0.177 | 0.182 | 0.943 | 0.904 | 0.893 | 0.933 | 1.01
NCI-H23 | 0.252 | 0.299 | 0.279 | 0.26 | 0.293 | 0.505 | 0.604 | 0.527 | 0.614 | 0.654 | 0.799 | 0.837 | 0.694 | 0.727 | 0.611 | 1.07 | 1.04 | 1.04 | 1.11 | 1.28
NCI-H322M | 0.686 | 0.695 | 0.739 | 0.672 | 0.654 | 0.471 | 0.52 | 0.491 | 0.469 | 0.43 | 0.253 | 0.229 | 0.245 | 0.256 | 0.247 | 1.32 | 1.45 | 1.19 | 1.36 | 1.48
NCI-H441 |  | 0.575 | 0.387 | 0.356 | 0.374 | 0.527 |  | 0.499 | 0.394 | 0.589 | 0.646 | 0.486 | 0.511 | 0.566 | 0.449 | 0.273 |  | 0.344 |  | 0.404
NCI-H460 |  | 0.412 | 0.422 | 0.294 | 0.262 |  | 0.41 | 0.327 | 0.337 | 0.401 | 0.468 | 0.477 | 0.426 | 0.487 | 0.413 |  | 1.12 | 1.11 | 1.06 | 1.19
NCI-H520 | 0.276 | 0.264 | 0.276 | 0.274 | 0.259 | 0.302 | 0.31 | 0.28 | 0.258 | 0.361 | 0.228 | 0.205 | 0.176 | 0.203 | 0.203 | 0.777 | 0.716 | 0.75 | 0.67 | 0.928
NCI-H596 | 0.817 | 0.795 | 0.78 | 0.74 | 0.734 | 0.431 | 0.479 | 0.468 | 0.452 | 0.421 | 0.634 | 0.564 | 0.556 | 0.564 | 0.555 | 1.05 | 1.13 | 1.3 | 1.27 | 1.21
NCI-H647 | 0.375 | 0.394 | 0.415 | 0.44 | 0.375 | 0.469 | 0.535 | 0.479 | 0.441 | 0.292 | 0.506 | 0.253 | 0.175 | 0.169 | 0.152 | 1.19 | 1.15 | 1.18 | 0.921 | 1.17
NCI-H650 | 0.315 | 0.296 | 0.396 | 0.316 | 0.368 | 0.96 | 1.01 | 1.12 | 1.06 | 0.978 | 0.37 | 0.435 | 0.483 | 0.444 | 0.403 | 0.989 | 1.12 | 0.781 | 0.782 | 1.18
NCI-H661 | 0.648 | 0.718 | 0.715 | 0.694 | 0.711 | 0.406 | 0.464 | 0.485 | 0.552 | 0.518 | 1.12 | 0.957 | 0.803 | 0.702 | 0.708 | 0.867 | 0.881 | 1.36 | 0.917 | 1.06
NCI-H727 | 0.641 | 0.599 | 0.582 |  | 0.577 | 0.389 | 0.514 | 0.6 | 0.317 | 0.451 | 0.374 | 0.372 | 0.346 | 0.29 | 0.42 | 1.05 | 0.756 | 1.02 | 0.774 | 0.934
NCI-H838 | 0.686 | 0.691 | 0.639 | 0.596 | 0.696 | 0.535 | 0.543 | 0.477 | 0.494 | 0.682 | 0.353 | 0.303 | 0.272 | 0.328 | 0.268 | 1.02 | 1.14 | 0.926 | 0.957 | 1.23
NCI-H1355 | 0.696 | 0.715 | 0.713 | 0.679 | 0.757 | 0.503 | 0.439 | 0.438 | 0.435 | 0.504 | 0.682 | 0.791 | 0.687 | 0.621 | 0.614 | 1.1 | 1.18 | 1.14 | 1.17 | 1.24
NCI-H1437 | 0.579 | 0.59 | 0.593 | 0.595 | 0.576 | 0.671 | 0.729 | 0.406 | 0.629 | 0.757 | 0.28 | 0.417 | 0.373 | 0.266 | 0.157 | 0.629 | 0.641 | 0.459 | 0.527 | 0.574
NCI-H1650 | 0.687 | 0.625 | 0.763 | 0.682 | 0.59 | 0.791 | 0.702 | 0.721 | 0.607 | 0.504 |  | 0.346 | 0.341 | 0.23 | 0.262 | 0.208 | 0.206 | 0.232 | 0.231 | 0.231
NCI-H1651 | 0.151 | 0.159 | 0.144 | 0.16 | 0.146 | 0.762 | 0.887 | 0.674 | 0.883 | 0.876 | 0.386 | 0.492 | 0.387 | 0.251 | 0.365 | 0.989 | 1.15 | 1.16 | 1.04 | 1.08
NCI-H1666 | 0.78 | 0.76 | 0.834 | 0.726 | 0.764 | 0.481 | 0.536 | 0.352 | 0.356 | 0.467 | 0.931 | 0.803 | 0.796 | 0.703 | 0.713 | 0.789 | 0.942 | 0.71 | 0.828 | 0.864
NCI-H1734 | 0.473 | 0.636 | 0.584 | 0.501 | 0.616 | 0.464 | 0.48 | 0.462 | 0.407 | 0.495 | 0.547 | 0.521 | 0.439 | 0.424 | 0.399 | 0.952 | 1.06 | 0.947 | 0.951 | 0.917
NCI-H1755 | 0.735 | 0.774 | 0.79 | 0.716 | 0.829 | 0.366 | 0.402 | 0.471 | 0.412 | 0.336 | 0.524 | 0.484 | 0.451 | 0.394 | 0.399 | 0.861 | 0.913 | 0.843 | 0.783 | 0.896
NCI-H1792 | 0.463 | 0.39 | 0.498 | 0.358 | 0.402 |  | 0.398 | 0.393 | 0.47 | 0.428 | 0.965 | 0.789 | 0.763 | 0.573 | 0.512 |  | 0.918 | 1.04 | 0.922 | 0.827
NCI-H1915 |  | 0.24 | 0.228 | 0.222 | 0.244 |  | 1.08 | 0.95 | 0.919 | 0.933 | 0.323 | 0.32 | 0.293 | 0.321 | 0.36 |  | 1.01 | 0.985 | 0.961 | 1.02
NCI-H1975 | 0.653 | 0.931 | 0.874 | 0.849 | 0.955 | 0.285 | 0.327 | 0.306 | 0.314 | 0.321 | 0.469 | 0.313 | 0.262 | 0.26 | 0.281 | 0.335 | 0.333 | 0.411 | 0.375 | 0.433
NCI-H1993 | 1.01 | 1.02 | 1.12 | 0.882 | 0.955 | 0.672 | 0.783 | 0.778 | 0.699 | 0.747 | 0.63 | 0.663 | 0.558 | 0.538 | 0.503 | 1.09 | 1.19 | 1.12 | 1.18 | 1.39
NCI-H2009 | 0.612 | 0.69 | 0.604 | 0.568 | 0.705 | 0.795 | 0.922 | 0.846 | 0.779 | 0.763 | 0.374 | 0.326 | 0.31 | 0.195 | 0.179 | 0.694 | 1.16 | 1.12 | 1 | 1.09
NCI-H2023 | 0.332 | 0.366 | 0.282 | 0.344 | 0.31 |  | 0.269 | 0.262 |  | 0.252 | 0.566 | 0.639 | 0.536 | 0.392 | 0.358 |  | 1.03 | 0.964 |  | 1.1
